Experimental data reported in patent publication US20200157135A1, “SIDE-CHAIN MODIFIED ERGOSTEROL AND STIGMASTEROL DERIVATIVES AS LIVER X RECEPTOR MODULATORS” (Ospedale San Raffaele srl, priority 2017, published 2020).

Assays:
FASN = assay: qPCR of FASN expression in PMA-differentiated U937 cells; type: cell-based, human; conditions: U937 differentiated with PMA 72 h; 10 μM, 6 hours
Procedure: (§1) U937 cells differentiated with PMA for 72 hours were treated with T0901317 (10 μM), 22R—HC (3) or with the tested compound (10 μM). […] (n=3/group). *p<0.05, **p<0.01, ***p<0.001.
LXR agonists induce the expression of target genes, which are involved in cholesterol homeostasis, particularly in the reverse cholesterol transport pathway.43 Indeed, LXR agonists induce the expression of ABCA1 both in macrophages and in many tissues of the periphery such as the intestine.44 Moreover, ABCA1 regulates cholesterol efflux to APOAI acceptors.45 In the liver, LXR activation promotes the biosynthesis of fatty acids, a process also termed as de novo lipogenesis by inducing the expression of the master regulator of hepatic lipogenesis sterol-regulatory element-binding protein 1C (SREBP-1c), as well as several downstream genes in the SREBP-1c pathway, including steroyl CoA desaturase 1 (SCD1) and fatty acid synthase (FASN).43 Therefore, it was investigated, by quantitative PCR (qPCR), the expression of ABCA1, SREBP1c, FASN, and SCD1, by using RNA from monocytic U937 cells (FIG. 3) and from hepatic HepG2 cells (FIG. 4) stimulated with our compounds, the non-steroidal agonist T0901317 or the endogenous ligand 22R—HC (3) as positive controls. […] Then, the induction of genes involved in the lipogenesis using the hepatic cell line HepG2. 43,22 was evaluated. […]
Quantitative Real-Time-PCR. […]

hLXRβ = biological target: T1, hLXRβ (Homo sapiens, UniProt P55055); assay: luciferase assay with GAL-4 chimeric hLXRβ receptor in human embryonic kidney 293 cells; type: cell-based
T1 sequence (P55055 222-460 limits assumed): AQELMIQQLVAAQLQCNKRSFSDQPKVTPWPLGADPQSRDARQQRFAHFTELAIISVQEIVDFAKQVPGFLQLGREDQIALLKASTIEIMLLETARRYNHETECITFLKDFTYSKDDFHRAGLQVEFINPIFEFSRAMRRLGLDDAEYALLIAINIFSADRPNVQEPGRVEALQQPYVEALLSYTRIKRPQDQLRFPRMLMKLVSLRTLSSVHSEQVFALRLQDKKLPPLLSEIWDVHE
Procedure: (§2) All the synthesized compounds were first tested for their ability to activate LXRs by using luciferase assays with GAL-4 chimeric receptors. These were performed by co-transfecting plasmids encoding hLXRα- and β-binding domains fused to GAL-4, with the respective responsive element conjugated with the luciferase reporter gene into the human embryonic kidney 293 cells.
(§3) Cell Culture and Co-transfection Assays. Human embryonic Kidney 293 cells (American Type Culture Collection) were cultured in Dulbecco's Modified Eagle's medium containing 10% of fetal bovine serum at 37° C. in humidified atmosphere of 5% CO2. HEK293 cells (4×10^4 cells per well) were transiently transfected in 48 well plate with the reporter plasmids pMH100X4-TK-luc (100 ng/well), Renilla (22 ng/well) together with 100 ng/well of pCMX-Gal4-RXR, pCMX-Gal4-PPAR-γ, pCMX-Gal4-PXR, pFA-CMV-FXR pCMX-Gal4-LXR-α or pCMX-Gal4-LXR-β plasmids using X-tremeGENE 9 DNA Transfection Reagent (Roche). Six hours after transfection, the cells were treated with the appropriate compound for 24 hours. Luciferase activities were analyzed by luciferase Dual Reporter Assay Systems (Promega) according to the manufacturer's protocol. GAL4-LXRs, GAL4-PPAR-γ, GAL4-RXR and TK-MHC100-luc plasmids were described in Villablanca et al.49 GAL4-PXR was a kind gift of Dr. Enrique Sainz (The Scripps Research Institute, La Jolla, USA). GAL4-FXR was a kind gift of Dr. Daniel Merk (Goethe-University Frankfurt am Main). The results obtained by luciferase assays and reported in Table 1 are from three to five independent experiments.
(§4) Statistical analysis. Data are expressed as mean±SEM and were analyzed for significance by ANOVA with Dunnet's multiple comparison tests. The analysis was performed with Prism software. Data in Table 1 are expressed as EC50±SD. In particular, the standard deviations were obtained by calculating the mean of the EC50 of each experiment (three to five independent experiments). The efficacy (%) of the compounds was calculated as the percentage of the compound effect, in terms of LXRα or β activation, versus 8 μM of 22R—HC±SD. The analyses were performed with Prism software.

hLXRα = biological target: T2, hLXRα (Homo sapiens, UniProt Q13133); assay: luciferase assay with GAL-4 chimeric hLXRα receptor in human embryonic kidney 293 cells; type: cell-based
T2 sequence (Q13133 209-447 limits assumed): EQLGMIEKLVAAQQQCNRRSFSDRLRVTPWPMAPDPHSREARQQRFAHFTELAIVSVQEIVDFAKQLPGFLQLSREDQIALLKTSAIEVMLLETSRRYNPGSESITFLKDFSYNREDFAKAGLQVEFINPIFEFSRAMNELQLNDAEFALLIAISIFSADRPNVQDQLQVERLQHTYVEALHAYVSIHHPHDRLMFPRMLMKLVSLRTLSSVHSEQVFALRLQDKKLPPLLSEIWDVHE
Procedure: as §2, §3, §4

SCD1 = assay: qPCR of SCD1 expression in PMA-differentiated U937 cells; type: cell-based, human; conditions: U937 differentiated with PMA 72 h; 10 μM, 6 hours
Procedure: as §1
LXR agonists induce the expression of target genes, which are involved in cholesterol homeostasis, particularly in the reverse cholesterol transport pathway.43 Indeed, LXR agonists induce the expression of ABCA1 both in macrophages and in many tissues of the periphery such as the intestine.44 Moreover, ABCA1 regulates cholesterol efflux to APOAI acceptors.45 In the liver, LXR activation promotes the biosynthesis of fatty acids, a process also termed as de novo lipogenesis by inducing the expression of the master regulator of hepatic lipogenesis sterol-regulatory element-binding protein 1C (SREBP-1c), as well as several downstream genes in the SREBP-1c pathway, including steroyl CoA desaturase 1 (SCD1) and fatty acid synthase (FASN).43 Therefore, it was investigated, by quantitative PCR (qPCR), the expression of ABCA1, SREBP1c, FASN, and SCD1, by using RNA from monocytic U937 cells (FIG. 3) and from hepatic HepG2 cells (FIG. 4) stimulated with our compounds, the non-steroidal agonist T0901317 or the endogenous ligand 22R—HC (3) as positive controls. […] Then, the induction of genes involved in the lipogenesis using the hepatic cell line HepG2. 43,22 was evaluated. […] Over the time, indeed, substantial efforts have been dedicated to the identification of LXR ligands able to turning on ABC transporter genes, without affecting lipogenic genes levels. This task is still one of the major challenge to the discovery of a clinically useful LXR modulator for atherosclerosis.
Quantitative Real-Time-PCR. U937 cell line was differentiated in foam macrophages with phorbol 12-myristate 13-acetate (PMA) 10 ng/ml (Sigma) for 72 hours at 37° C. in […] at the concentration of 3×10^6 cells in 10 ml RPMI 10% FBS. At day 3 nuclear receptor ligands were added for 6 hours. HepG2 cells were treated with the ligands as described by Quinet et al.22 Total RNA was purified by TRIZOL (Invitrogen, Carlsbad, Calif., USA). Reverse transcription was performed incubating 2 μg of total RNA 1 hour at 42° C. with MLV-reverse transcriptase (Promega). Quantitative PCR was performed using Sybr Green Master Mix (Applied Biosystems) and real-time PCR (Viia 7 Real Time PCR System, Applied Biosystems). All PCR reactions were done in triplicate. The comparative Ct method was used to quantify transcripts that were normalized for human GAPDH. the following primer pairs were used: […]

For CC(C)[C@@H](C)C[C@@H](O)[C@@H](C)[C@H]1CC[C@H]2C3=CC=C4C[C@@H](O)CC[C@]4(C)[C@H]3CC[C@]12C, the melting point was 117.3 to 121 °C.
With CC(C)CC[C@@H](O)[C@@H](C)[C@H]1CC[C@H]2[C@@H]3CC=C4C[C@@H](O)CC[C@]4(C)[C@H]3CC[C@]12C [22R-HC (3), 22(R)-hydroxycholesterol, reference compound] the “FASN mRNA levels” value (FASN) was “did not induce up-regulation of FASN and SCD1 transcripts”, the EC50 (hLXRβ; GAL4-hLXRβ luciferase, HEK293, dose-response 32-1 μM, mean of three-five independent experiments, read-out: LXRβ EC50 (μM) ± SD) was 4.75 ± 0.12 µM and the Emax (hLXRβ; HEK293, 24 h, read-out: LXRβ Efficacy (%) ± SD, % of compound effect versus 8 μM of 22R-HC) was 100%. The EC50 (hLXRα; GAL4-hLXRα luciferase, HEK293, dose-response 32-1 μM, mean of three-five independent experiments, read-out: LXRα EC50 (μM) ± SD) was 6.71 ± 0.71 µM, the Emax (hLXRα; HEK293, 24 h, read-out: LXRα Efficacy (%) ± SD) was 100% and the “SCD1 expression” value (SCD1) was “did not induce up-regulation of FASN and SCD1 transcripts”.
